Experimental data: US5475029A, “Farnesyl compounds as cholesterol lowering agents” (The Board of Trustees of the Leland Stanford Junior …, priority 1993, dated 1995)

Key:
total cellular protein [1] = experiment: Total cellular protein synthesis (TCA-precipitable counts); assay type: cell-based; conditions: 10 μg/ml
Experimental: Measurement of HMGal and HMG-CoA Reductase Synthesis Rates Cells plated into 60×15 mm dishes were grown in 5% LPS MEM with 0.25 mg/ml active geneticin for 24 hours. These cells were washed with PBS and grown for 24 hours in 5% LPS MEM supplemented with 0.25 mg/ml active geneticin, 10 μM compactin and 0.1 mM mevalonate. After 24 hours, the medium was removed, the cells were washed with PBS and the medium was replaced with methionine-free MEM supplemented with 5% LPS, 250 μg/ml of active geneticin, 10 μM compactin, and 0.1 mM mevalonate. In addition, 20 mM mevalonate or 10 μg/ml farnesyl acetate was included in those plates previously treated with these compounds. […] Cells were washed, lysed and the HMGal and HMG-CoA reductase proteins were immunoprecipitated, subjected to SDS-PAGE and quantified. […]
Farnesyl compounds reduce translation and stimulate degradation of HMG-CoA reductase and HMGal A reduction in HMGal specific activity triggered by the farnesyl compounds could have been the result of a decrease in HMGal synthesis, an increase in HMGal degradation, or a combination of changes in both the synthesis and degradation rates. In order to test whether the farnesyl compounds impact synthesis, the rates of HMGal, HMG-CoA reductase, and total cellular protein synthesis were measured by [^35 S]methionine incorporation in the presence and absence of 10 μg/ml farnesyl acetate.

total cellular protein [2] = experiment: Total cellular protein degradation; assay type: cell-based; conditions: 10 μg/ml
Experimental: Measurement of HMGal and HMG-CoA Reductase Degradation Rates Cells grown in 60×15 mm dishes were washed once with ice-cold PBS and starved for 1 hour in 1 ml of methionine-free MEM supplemented with 5% LPS, 250 μg/ml of active geneticin, 10 μM compactin, and 0.1 mM mevalonate. These cells were radio-labeled for 2 hours in 300 μl of the methionine-free starvation medium containing 100 μCi of Tran^35 S-label (>1,000 Ci/mmol). Cells were incubated in an MEM-based chase medium containing 2 mM methionine, 5% LPS, 250 μg/ml of active geneticin, 10 μM compactin, and 0.1 mM mevalonate. During the chase period, some plates also had either 20 mM mevalonate, 10 μg/ml farnesyl acetate or 10 μg/ml ethyl farnesyl ether added to them as indicated in the figure legend. Following the chase, cells were washed, lysed and the HMGal and HMG-CoA reductase proteins were immunoprecipitated, subjected to SDS-PAGE and quantified.
In order to test whether the farnesyl compounds impact degradation, the rates of degradation for HMGal, HMG-CoA reductase, and total cellular protein were measured in the presence and absence of 10 μg/ml farnesyl acetate and ethyl farnesyl ether.

cholesterol biosynthesis = experiment: [3H]acetate incorporation into cholesterol in CHO-HMGal cells; assay type: cell-based
Experimental: Thin Layer Chromatography--TLC was performed using Analtech 250 μm silica gel G plates with a hexanes/diethyl ether (1:1) solvent system. Lipid standards were visualized by iodine staining. Bands were scraped from the plate and their radioactivity was measured.
Quantification of Radioactivity--Samples were suspended in 4 ml of scintillation fluid (Cytoscint from ICN). The radioactivity of the samples was measured using a Beckman LS-7500 scintillation counter.
Subsequently, the cells were labeled for 1,2, and 4 hours with [^3 H]acetate and harvested. The non-saponifiable lipid fraction from each cell type was extracted and separated by TLC. The radioactivity that co-migrated with cholesterol was measured and normalized for the amount of cellular protein.
Farnesyl acetate and ethyl farnesyl ether were only present during the labeling period so that any reduction in incorporation into cholesterol would be the result of inhibition and not a down regulation in HMG-CoA reductase.

squalene synthase = experiment: Squalene synthase assay (cell lysate); assay type: biochemical; conditions: 4 nM to 0.2 mM
Experimental: Squalene Synthase Assay--The cell lysate was prepared immediately prior to running the assay. Cells were washed three times with PBS, once with a 0.1M potassium phosphate buffer (pH 7.4) containing 5 mM MgCl2 and 5 mM CHAPS, and once with a 0.01M potassium phosphate buffer (pH 7.4) containing 0.5 mM MgCl2 and 0.5 mM CHAPS. Cells were scraped with a rubber policeman in approximately 0.5 ml of the final wash buffer and dounce homogenized with 20 strokes, while on ice. An aliquot of cell lysate was examined with a light microscope to ensure that essentially all cells in the sample were lysed. An additional aliquot of cell lysate was saved for protein determination. […] The squalene was isolated by TLC and the radioactivity of the squalene bands was measured as previously described. […]
Since both farnesyl compounds have a structural similarity to farnesyl pyrophosphate, the substrate for squalene synthase, and some of the farnesyl compounds that have been tested function as a competitive inhibitor of squalene synthase, the effects of farnesyl acetate on in vitro squalene synthase activity was measured. As a positive control, squalene synthase activity was also measured in tile presence of zaragozic acid A, a potent competitive inhibitor of the enzyme. […]

For `CC(=O)OCC=C(C)CCC=C(C)CCC=C(C)C` [farnesyl acetate], which “effect on total protein synthesis (TCA-precipitable counts)” value (total cellular protein [1]) is on record?
Its value is “Neither farnesyl acetate nor mevalonate have a significant effect”.

And the “effect on the degradation of total cellular protein” value (total cellular protein [2])?
Its value is “Neither farnesyl compound had a significant effect”.

What about the “reduction in [3H]acetate incorporation into cholesterol” value (cholesterol biosynthesis; 24 hours pretreatment, then labeled 1, 2 and 4 hours, CHO-HMGal cells) of the same molecule?
Its value is 80%.

What about the “reduction in [3H]acetate incorporation into cholesterol” value (cholesterol biosynthesis; compound present only during the labeling period, no pretreatment) of the same molecule?
Its value is 89%.

What about the “effect on in vitro squalene synthase activity” value (squalene synthase) of the same molecule?
Its value is “negligible effect”.
